Experimental data as given in US20210361680A1, “INOSITOL-BASED IMMUNOTHERAPIES” (NormOxys, Inc., priority 2018, published 2021).
“Also recorded” adds a separate entry of the source.

How the values were obtained:
[1] = tested on: CCR7; experiment: Flow cytometry of CCR7 expression in the tumor site; type: in vivo, mouse; details: tumor cells
Procedure: (§1) Murine B16F10 cells were implanted in C57BL6 or on Rj:NMRI-nu nude mice leg subcutaneously as we described previously by injecting a spheroid plug of 10^5 cells in 100 μl Matrigel (BD Biosciences).
(§2) ITPP was injected intraperitoneally (1.5 g/kg: in saline) twice a week over 3 weeks. It was started on day7 and repeated on day 8 post tumor inoculation (day 0). The following serial treatments were applied on days 15 and 16, 21 and 22. Tumors were extracted and weighted at the indicated times.
(§3) Tumor samples were immediately transferred in to PBS on ice. Biopsies were cut into small pieces and filtered through cell strainer after being dissociated by collagenase/dispase (Gibco). The samples were depleted of erythrocytes by red blood lysis buffer (eBiosciences).
(§4) In specified experiments, tumors were depleted from CD45+ and/or CD31+ cells by magnetic separation (Easy Sep magnet, StemCell Technologies Inc).
(§5) Single cell suspensions were stained with mAbs for 1 h at 4° C. Acquisition was performed by one to four color flow cytometry using FACS LSR (Becton Dickinson). Dead cells were excluded on scatter profile. Data were acquired using CellQuest software (Becton Dickinson) on at least 100,000 events. Data were expressed as dot plot or histogram when comparison of fluorescence intensity is needed. […]

[2] = tested on: CCR10; experiment: Flow cytometry of CCR10 expression in the tumor site; type: in vivo, mouse
Procedure: as §1, §2, §3, §4
(§6) Single cell suspensions were stained with mAbs for 1 h at 4° C. Acquisition was performed by one to four color flow cytometry using FACS LSR (Becton Dickinson). Dead cells were excluded on scatter profile. Data were acquired using CellQuest software (Becton Dickinson) on at least 100,000 events. Data were expressed as dot plot or histogram when comparison of fluorescence intensity is needed.
(§7) The following directly conjugated rat anti-mouse mAbs were used for the FACS staining: CD45-PerCP, CD11b-APC, CCR4-PE, CCR5-PE, CCR7-PE, CCR1O-PE and CXCR4-PE were from BD Biosciences. CD49b-APC was from Biolegend. CD226-PE, CD4-FITC, CD25-APC, CD8a-FITC, PD-1-PE, CTLA-4-PE, PDL1-PE-Cy7, PDL2-FITC and CD47-APC were from eBiosciences. CD11c-FITC and GR1-FITC were from Milteny. CD206 was from Santa Cruz. We used anti-mouse Foxp3 staining set PE (eBioscience) for Foxp3 staining.

[3] = tested on: PD-1; experiment: Flow cytometry of PD-1 expressing CD45+ cells in B16F10 melanoma; type: in vivo, mouse
Procedure: as §1, §2, §3, §6
(§8) The following directly conjugated rat anti-mouse mAbs were used for the FACS staining: CD45-PerCP, CD11b-APC, CCR4-PE, CCR5-PE, CCR7-PE, CCR1O-PE and CXCR4-PE were from BD Biosciences. CD49b-APC was from Biolegend. […]

[4] = tested on: B16F10 melanoma cells; experiment: Tumor growth of B16F10 melanoma in C57BL6 mice under ITPP treatment; type: in vivo, mouse; details: day 23
Procedure: (§9) Murine B16F10 cells were implanted in C57BL6 or on Rj:NMRI-nu nude mice leg subcutaneously by injecting a plug of 10^5 cells in 100 μl Matrigel (BD Biosciences).
as §1, §2

[5] = tested on: cells; details: cited from earlier work
[6] = tested on: CXCR4; experiment: Flow cytometry of CXCR4 expression in the tumor site; type: in vivo, mouse
Procedure: as §1, §2, §3, §4, §6, §7

[7] = tested on: CCR5; experiment: Flow cytometry of CCR5 expression in the tumor site; type: in vivo, mouse
Procedure: as §1, §2, §3, §4, §5

[8] = tested on: PD-L1; experiment: Flow cytometry of PD-L1 expression in tumor cell populations; type: in vivo, mouse
Procedure: as §1, §2, §3, §4, §6, §7

[9] = tested on: CD45+CD4+CD25+FoxP3+ Treg cells; experiment: Flow cytometry of Treg cells in B16F10Luc tumors; type: in vivo, mouse
Procedure: as §1, §2, §3, §6, §8

[10] = tested on: CD45+CD11b+Gr1+ MDSCs; experiment: Flow cytometry of MDSCs in B16F10 Luc melanoma; type: in vivo, mouse
Procedure: as §1, §2, §3, §6, §8

[11] = tested on: immune cells (CD45+); experiment: Flow cytometry of CD45+ immune cells in B16F10Luc tumors; type: in vivo, mouse; details: ITPP-treated versus control mice
Procedure: as §1, §2, §3, §6, §8

[12] = tested on: M1 (CD45+CD11c+CD206−) macrophages; experiment: Flow cytometry of M1 macrophages in B16F10 Luc melanoma; type: in vivo, mouse
Procedure: as §1, §2, §3, §6, §8

[13] = tested on: PD-L2; experiment: Flow cytometry of PD-L2 expression in tumor cell populations; type: in vivo, mouse; details: for reduction of the expression of PD-L2: compared with PD-L1
Procedure: as §1, §2, §3, §4, §6, §7

[14] = tested on: CX3CR1; experiment: Flow cytometry of CX3CR1 expression in the tumor site; type: in vivo, mouse; details: endothelial enriched cell population
Procedure: as §1, §2, §3, §4, §6

[15] = tested on: activated NK cells; experiment: Flow cytometry of activated NK cells in 4T1 mammary carcinoma; type: in vivo, mouse; details: 4T1 cells bearing mice
Procedure: (§10) 4T1murine mammary carcinoma (10^4 cells as spheroid plug in Matrigel) cells were injected in the mammary fat pad of BALBc/by mice.
as §2, §3, §6, §8

[16] = tested on: Treg cells; experiment: Flow cytometry of Treg cells in 4T1 mammary carcinoma; type: in vivo, mouse; details: 4T1 mammary carcinoma bearing BalbC mice
Procedure: as §10, §2, §3, §6, §8

[17] = tested on: CD45+CD4+CCR4+ Th2 cells; experiment: Flow cytometry of Th2 cells in B16F10 Luc melanoma; type: in vivo, mouse
Procedure: as §1, §2, §3, §6, §8

[18] = tested on: M2 (CD45+CD11c+CD206+) macrophages; experiment: Flow cytometry of M2 macrophages in B16F10Luc melanoma; type: in vivo, mouse; details: melanoma tumor site
Procedure: as §1, §2, §3, §6, §8

[19] = tested on: NK cells; experiment: Flow cytometry of NK cells in B16F10Luc tumors, C57BL6 mice; type: in vivo, mouse
Procedure: as §1, §2, §3, §6, §7

[20] = tested on: CTLA-4; experiment: Flow cytometry of CTLA-4 expression among CD45+ cells; type: in vivo, mouse
Procedure: as §2, §3, §6
as §7, with “We used anti-mouse Foxp3 staining set PE (eBioscience) for Foxp3 staining.” left out

[21] = tested on: B16F10 melanoma cells; experiment: Tumor growth of B16F10 melanoma in Rj:NMRI-nu nude mice under ITPP treatment; type: in vivo, mouse; details: ITPP 1.5 g/kg intraperitoneally, day 23, versus controls
Procedure: as §9, §1, §2

[22] = tested on: M2 (CD45+CD11c+CD206+) macrophages; experiment: Flow cytometry of M2 macrophages in 4T1 mammary carcinoma; type: in vivo, mouse
Procedure: as §10, §2, §3, §6, §8

[23] = tested on: CD31+ endothelial cells; experiment: Flow cytometry of CD31+ endothelial cells in B16F10Luc melanoma; type: in vivo, mouse; details: treated versus non-treated tumors
Procedure: as §1, §2, §3, §6, §8

[24] = in vivo; cited from earlier work
[25] = tested on: NK cells; experiment: Immunocytochemical labelling of NK cell infiltrate in B16F10 Luc tumors; type: in vivo, mouse; details: B16F10 Luc tumors extracted on day 23; non-treated: NK cells stuck in the vessels
Procedure: as §1, §2
Tumor tissues were embedded in tissue freezing medium (Tissue-Tek; Sakura) and snap frozen in liquid nitrogen. Tumor cryosections were fixed and stained with mouse anti-CD31 (rat monoclonal IgG2a; eBiosciences), anti-CD49b (Rat IgM; BD Pharmingen) or anti-Firefly Luciferase (Rabbit IgG; Abcam) before tetramethyl rhodamine isothiocyanate or fluorescein isothiocyanate secondary antibodies were added. Nuclei were stained with bisbenzimide H 33258 (Sigma-Aldrich).

[26] = tested on: CD47; experiment: Flow cytometry of CD47 expression in B16F10 tumors; type: in vivo, mouse; details: tumor B16F10 melanoma cells
Procedure: as §1, §2, §3, §6, §8

[27] = tested on: 4T1 mammary carcinoma; experiment: Tumor growth of 4T1 mammary carcinoma in BALB/c-by mice under ITPP treatment; type: in vivo, mouse
Procedure: as §10, §2

[28] = tested on: NK cells; experiment: Flow cytometry of NK cells in B16F10Luc tumors, NRj:NMRI nude mice; type: in vivo, mouse; details: B16F10-Luc tumors in nude mice
Procedure: as §1, §2, §3, §6, §8

[29] = tested on: PD-1; experiment: Flow cytometry of PD-1 expressing CD45+ cells in 4T1 mammary carcinoma; type: in vivo, mouse
Procedure: as §10, §2, §3, §6, §8

[30] = CD31+ endothelial cells of the tumor

expression of the fractalkine receptor CX3CR1 [14]: induced expression
Compound: O=P1(O)OC2C3OP(=O)(O)OP(=O)(O)OC3C3OP(=O)(O)OP(=O)(O)OC3C2OP(=O)(O)O1 (centres unmarked) [ITPP, myo-inositol tris pyrophosphate]
CCR7 expression [1]: total reduction | cells expressing CCR10 ([2]; B16F10 cells): reduced | increase of cells expressing CCR10 (R) ([2]; endothelial cells enriched population): 2 | increase of cells expressing CCR10 (R) ([2]; immune cells (CD45+)): 10 | CD45+PD-1+ cells among whole tumor populations [3]: increase; also recorded: enriched | tumor size ([4]; B16F10 melanoma in normal C57BL6 mice, ITPP 1.5 g/kg intraperitoneally, versus controls): reduction of the tumor size; also recorded: half size of the controls | tumor growth ([4]; melanoma cells, treatments stopped on day 21): 50% | toxicity for cells treated separately [5]: not to be toxic | CXCR4 expression ([6]; CD45+ cells): not affected | CXCR4 expression ([6]; endothelial enriched cell population): not affected | cells expressing CXCR4 ([6]; tumor cells): strongly reduced | CCR5 expression ([7]; CD45+ population): inverse effect | CCR5 expression ([7]; tumor cells): radical effect | expression of PD-L1 [8, 30]: considerably reduced and less | expression of PD-L1 ([8]; immune CD45+ cell population): strongly reduced | expression of PD-L1 ([8]; separated CD45− cells): clear reduction | expression of PD-L1 ([8]; whole tumor cell populations): clear reduction | proportions of CD45+CD4+CD25+FoxP3+ Treg cells [9]: very significantly decreased; also recorded: reduced | MDSCs proportion in the tumor [10]: reduced | proportion of immune cells (CD45+) in the tumor [11]: higher | numbers of macrophages expressing the M1 (CD45+CD11c+CD206−) phenotype [12]: tendency to increase; also recorded: tended to increase | expression of PD-L2 [13, 30]: reduced and less | expression of PD-L2 ([13]; immune CD45+ cell population): strongly reduced | reduction of the expression of PD-L2 ([13]; separated CD45− cells): to a lesser extent | reduction of the expression of PD-L2 ([13]; whole tumor cell populations): to a lesser extent | recruitment of activated NK cells [15]: higher recruitment | Treg cell numbers [16]: reducing effect; also recorded: reduced | proportion of Th2 cells (CD45+CD4+CCR4+) in the tumor site [17]: decrease; also recorded: reduced | proportion of M2 (CD45+CD11c+CD206+) macrophages [18]: reduced; also recorded: decreased | proportions of NK cells found in the tumor before and after ITPP treatments (R) ([19]; B16F10-Luc tumors in normal C57Bl6 mice): 2.25 | number of NK cells in the tumor site ([19]; CD45+CD49+ NK cells, B16F10Luc tumors, C57BL6 mice): doubled | numbers of activated (CD45+CD49b+CD226+) NK cells ([19]; melanoma bearing mice, after ITPP treatment): increase | CTLA-4 expression [20]: No significant change | tumor size [21]: reduction of the tumor size; also recorded: half size of the controls | proportion of M2 (CD45+CD11c+CD206+) macrophages [22]: reduced; also recorded: decreased | proportion of CD31+ endothelial cells [23]: higher; also recorded: increased | toxicity for the animals [24]: not to be toxic | NK cell (CD49b+) infiltrate in the tumor [25]: infiltrated the tumor mass | intensity of CD47 expression [26]: reduced | mammary carcinoma reduction ([27]; 4T1, day 31, after arrest of treatment on day 21): up to 50% | tumor size ([27]; 4T1 mammary carcinoma in BALB/c-by mice, ITPP 1.5 g/kg intraperitoneally, day 31, versus controls): reduction of the tumor size; also recorded: half size of the controls | proportions of NK cells found in the tumor before and after ITPP treatments (R) [28]: 2.25 | CD45+PD-1+ cells among whole tumor populations [29]: increase; also recorded: enriched
